{"source": "paper PMC10465233", "about": "“Lys-urea-Aad, Lys-urea-Cmc and Lys-urea-Cms as potential pharmacophores for the design of PSMA-targeted radioligands to reduce off-target uptake in kidneys and salivary glands” (Theranostics, 2023)", "test_system": "LNCaP tumor-bearing mice", "assay": "Ex vivo biodistribution in LNCaP tumor-bearing mice", "parameters": "species or system mouse", "method": "Imaging, biodistribution and radioligand therapy experiments were performed following previously published procedures using male NOD-scid IL2Rg^null (NSG) or NOD.Cg-Rag1^tm1MomIl2rg^tm1Wjl/SzJ (NRG) mice [10]-[12],[14]-[15]. The experiments were conducted according to the guidelines established by the Canadian Council on Animal Care and approved by Animal Ethics Committee of the University of British Columbia. The mice were briefly sedated by inhalation of 2% isoflurane in oxygen, and implanted subcutaneously with 1×10^7 LNCaP cells behind the left shoulder. The mice were imaged or used in biodistribution studies when the tumor grew to 5-8 mm in diameter over a period of 4-5 weeks.\nFor biodistribution studies, the mice were injected with the radioligand (2-4 MBq) as described above. For blocking, the mice were co-injected with nonradioactive DCFPyL (0.5 mg). At predetermined time points, the mice were sedated by isoflurane inhalation and euthanized by CO2 inhalation. Blood was withdrawn by cardiac puncture, and organs/tissues of interest were collected, weighed and counted using an automatic gamma counter (Tables S4-S7).", "data": [{"smiles": "COc1ccc(CCCC(=O)NCC(=O)N[C@@H](CCCCNC(=O)CN2CCN(CC(=O)[O-])CCN(CC(=O)[O-])CCN(CC(=O)[O-])CC2)C(=O)NC[C@H]2CC[C@H](C(=O)N[C@@H](Cc3c4ccccc4cc4ccccc34)C(=O)NCCCC[C@H](NC(=O)N[C@@H](CCCC(=O)O)C(=O)O)C(=O)O)CC2)cc1.[177Lu+3]", "note": "[[^177Lu]Lu-HTK03170]", "values": [{"measurement": "Adrenal glands uptake", "setting": "1 h post-injection", "value": "3.34 ± 0.45", "unit": "%ID/g"}, {"measurement": "Blood uptake", "setting": "1 h post-injection", "value": "16.9 ± 1.97", "unit": "%ID/g"}, {"measurement": "Blood:Salivary gland uptake ratio", "setting": "1 h post-injection", "value": "7.04 ± 0.86"}, {"measurement": "Bone uptake", "setting": "1 h post-injection", "value": "0.89 ± 0.27", "unit": "%ID/g"}, {"measurement": "Brain uptake", "setting": "1 h post-injection", "value": "0.23 ± 0.04", "unit": "%ID/g"}, {"measurement": "Fat uptake", "setting": "1 h post-injection", "value": "1.38 ± 0.45", "unit": "%ID/g"}, {"measurement": "Heart uptake", "setting": "1 h post-injection", "value": "3.60 ± 0.52", "unit": "%ID/g"}, {"measurement": "Intestines uptake", "setting": "1 h post-injection", "value": "1.19 ± 0.25", "unit": "%ID/g"}, {"measurement": "Kidneys uptake", "setting": "1 h post-injection", "value": "13.2 ± 1.87", "unit": "%ID/g"}, {"measurement": "Lacrimal glands uptake", "setting": "1 h post-injection", "value": "0.27 ± 0.08", "unit": "%ID/g"}, {"measurement": "Liver uptake", "setting": "1 h post-injection", "value": "2.67 ± 0.37", "unit": "%ID/g"}, {"measurement": "Lungs uptake", "setting": "1 h post-injection", "value": "8.06 ± 1.48", "unit": "%ID/g"}, {"measurement": "Muscle uptake", "setting": "1 h post-injection", "value": "1.15 ± 0.19", "unit": "%ID/g"}, {"measurement": "Pancreas uptake", "setting": "1 h post-injection", "value": "1.41 ± 0.31", "unit": "%ID/g"}, {"measurement": "Salivary glands uptake", "setting": "1 h post-injection", "value": "2.43 ± 0.33", "unit": "%ID/g"}, {"measurement": "Spleen uptake", "setting": "1 h post-injection", "value": "1.64 ± 0.83", "unit": "%ID/g"}, {"measurement": "Stomach uptake", "setting": "1 h post-injection", "value": "0.59 ± 0.12", "unit": "%ID/g"}, {"measurement": "Testes uptake", "setting": "1 h post-injection", "value": "2.17 ± 0.32", "unit": "%ID/g"}, {"measurement": "Thyroid uptake", "setting": "1 h post-injection", "value": "2.90 ± 0.41", "unit": "%ID/g"}, {"measurement": "Tumor uptake", "setting": "1 h post-injection", "value": "27.2 ± 7.55", "unit": "%ID/g"}, {"measurement": "Tumor:Blood uptake ratio", "setting": "1 h post-injection", "value": "1.58 ± 0.26"}, {"measurement": "Tumor:Kidney uptake ratio", "setting": "1 h post-injection", "value": "2.07 ± 0.55"}, {"measurement": "Tumor:Muscle uptake ratio", "setting": "1 h post-injection", "value": "23.5 ± 4.66"}, {"measurement": "Tumor:Salivary gland uptake ratio", "setting": "1 h post-injection", "value": "11.3 ± 2.76"}, {"measurement": "Adrenal glands uptake", "setting": "4 h post-injection", "value": "1.78 ± 0.45", "unit": "%ID/g"}, {"measurement": "Blood uptake", "setting": "4 h post-injection", "value": "8.34 ± 1.67", "unit": "%ID/g"}, {"measurement": "Blood:Salivary gland uptake ratio", "setting": "4 h post-injection", "value": "6.48 ± 1.02"}, {"measurement": "Bone uptake", "setting": "4 h post-injection", "value": "0.45 ± 0.13", "unit": "%ID/g"}, {"measurement": "Brain uptake", "setting": "4 h post-injection", "value": "0.13 ± 0.03", "unit": "%ID/g"}, {"measurement": "Fat uptake", "setting": "4 h post-injection", "value": "0.60 ± 0.13", "unit": "%ID/g"}, {"measurement": "Heart uptake", "setting": "4 h post-injection", "value": "1.91 ± 0.40", "unit": "%ID/g"}, {"measurement": "Intestines uptake", "setting": "4 h post-injection", "value": "0.61 ± 0.17", "unit": "%ID/g"}, {"measurement": "Kidneys uptake", "setting": "4 h post-injection", "value": "9.23 ± 2.18", "unit": "%ID/g"}, {"measurement": "Lacrimal glands uptake", "setting": "4 h post-injection", "value": "0.15 ± 0.07", "unit": "%ID/g"}, {"measurement": "Liver uptake", "setting": "4 h post-injection", "value": "1.89 ± 0.69", "unit": "%ID/g"}, {"measurement": "Lungs uptake", "setting": "4 h post-injection", "value": "4.35 ± 0.82", "unit": "%ID/g"}, {"measurement": "Muscle uptake", "setting": "4 h post-injection", "value": "0.58 ± 0.13", "unit": "%ID/g"}, {"measurement": "Pancreas uptake", "setting": "4 h post-injection", "value": "0.74 ± 0.18", "unit": "%ID/g"}, {"measurement": "Salivary glands uptake", "setting": "4 h post-injection", "value": "1.31 ± 0.30", "unit": "%ID/g"}, {"measurement": "Spleen uptake", "setting": "4 h post-injection", "value": "0.96 ± 0.29", "unit": "%ID/g"}, {"measurement": "Stomach uptake", "setting": "4 h post-injection", "value": "0.42 ± 0.15", "unit": "%ID/g"}, {"measurement": "Testes uptake", "setting": "4 h post-injection", "value": "1.83 ± 0.58", "unit": "%ID/g"}, {"measurement": "Thyroid uptake", "setting": "4 h post-injection", "value": "1.62 ± 0.42", "unit": "%ID/g"}, {"measurement": "Tumor uptake", "setting": "4 h post-injection", "value": "47.6 ± 13.5", "unit": "%ID/g"}, {"measurement": "Tumor:Blood uptake ratio", "setting": "4 h post-injection", "value": "5.81 ± 1.58"}, {"measurement": "Tumor:Kidney uptake ratio", "setting": "4 h post-injection", "value": "5.38 ± 1.91"}, {"measurement": "Tumor:Muscle uptake ratio", "setting": "4 h post-injection", "value": "83.1 ± 17.0"}, {"measurement": "Tumor:Salivary gland uptake ratio", "setting": "4 h post-injection", "value": "36.4 ± 5.35"}, {"measurement": "Adrenal glands uptake", "setting": "24 h post-injection", "value": "0.50 ± 0.16", "unit": "%ID/g"}, {"measurement": "Blood uptake", "setting": "24 h post-injection", "value": "0.59 ± 0.13", "unit": "%ID/g"}, {"measurement": "Blood:Salivary gland uptake ratio", "setting": "24 h post-injection", "value": "2.11 ± 0.47"}, {"measurement": "Bone uptake", "setting": "24 h post-injection", "value": "0.06 ± 0.04", "unit": "%ID/g"}, {"measurement": "Brain uptake", "setting": "24 h post-injection", "value": "0.02 ± 0.01", "unit": "%ID/g"}, {"measurement": "Fat uptake", "setting": "24 h post-injection", "value": "0.12 ± 0.04", "unit": "%ID/g"}, {"measurement": "Heart uptake", "setting": "24 h post-injection", "value": "0.26 ± 0.04", "unit": "%ID/g"}, {"measurement": "Intestines uptake", "setting": "24 h post-injection", "value": "0.18 ± 0.07", "unit": "%ID/g"}, {"measurement": "Kidneys uptake", "setting": "24 h post-injection", "value": "5.80 ± 1.24", "unit": "%ID/g"}, {"measurement": "Lacrimal glands uptake", "setting": "24 h post-injection", "value": "0.04 ± 0.03", "unit": "%ID/g"}, {"measurement": "Liver uptake", "setting": "24 h post-injection", "value": "0.69 ± 0.27", "unit": "%ID/g"}, {"measurement": "Lungs uptake", "setting": "24 h post-injection", "value": "0.72 ± 0.19", "unit": "%ID/g"}, {"measurement": "Muscle uptake", "setting": "24 h post-injection", "value": "0.08 ± 0.02", "unit": "%ID/g"}, {"measurement": "Pancreas uptake", "setting": "24 h post-injection", "value": "0.12 ± 0.03", "unit": "%ID/g"}, {"measurement": "Salivary glands uptake", "setting": "24 h post-injection", "value": "0.28 ± 0.04", "unit": "%ID/g"}, {"measurement": "Spleen uptake", "setting": "24 h post-injection", "value": "0.45 ± 0.10", "unit": "%ID/g"}, {"measurement": "Stomach uptake", "setting": "24 h post-injection", "value": "0.25 ± 0.13", "unit": "%ID/g"}, {"measurement": "Testes uptake", "setting": "24 h post-injection", "value": "0.64 ± 0.53", "unit": "%ID/g"}, {"measurement": "Thyroid uptake", "setting": "24 h post-injection", "value": "0.37 ± 0.06", "unit": "%ID/g"}, {"measurement": "Tumor uptake", "setting": "24 h post-injection", "value": "57.2 ± 15.3", "unit": "%ID/g"}, {"measurement": "Tumor:Blood uptake ratio", "setting": "24 h post-injection", "value": "105 ± 57.4"}, {"measurement": "Tumor:Kidney uptake ratio", "setting": "24 h post-injection", "value": "10.5 ± 4.77"}]}]}
